Data as given in US11999699B2, “Substituted pyrazole amides” (GRUENENTHAL GMBH, priority 2021, dated 2024).

Biological target: T1, human NaV1.8 (Homo sapiens, UniProt Q9Y5Y9)
T1 construct: The following NaV1.8 recombinant cell line was used for recordings: HEK-NaV1.8 (NM 006514.1); expressed in transfected cells; host or cells: HEK (recombinant cell line HEK-NaV1.8)
Assay: Electrophysiology: automated whole-cell voltage-clamp (patch clamp, Qube384) recordings of sodium currents in HEK-NaV1.8 cells
Assay type: cell-based
Conditions: potency data either taken from inactivated or resting state, read-out: Potency category (human NaV1.8 IC50)
Method in brief: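 Automated whole-cell patch clamp at room temperature on HEK cells expressing human NaV1.8, with 0.3% DMSO vehicle controls. State-dependent protocol from −120 mV tested resting (P1) and half-inactivated (P2, 4 s at V1/2) channels, plus 40-pulse trains at 10 and 20 Hz. Values after ~12 min compound exposure were normalised to baseline and corrected for vehicle run-down; IC50 from a 4-parameter logistic fit, taken from inactivated or resting state.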

T1 sequence (Q9Y5Y9 whole entry): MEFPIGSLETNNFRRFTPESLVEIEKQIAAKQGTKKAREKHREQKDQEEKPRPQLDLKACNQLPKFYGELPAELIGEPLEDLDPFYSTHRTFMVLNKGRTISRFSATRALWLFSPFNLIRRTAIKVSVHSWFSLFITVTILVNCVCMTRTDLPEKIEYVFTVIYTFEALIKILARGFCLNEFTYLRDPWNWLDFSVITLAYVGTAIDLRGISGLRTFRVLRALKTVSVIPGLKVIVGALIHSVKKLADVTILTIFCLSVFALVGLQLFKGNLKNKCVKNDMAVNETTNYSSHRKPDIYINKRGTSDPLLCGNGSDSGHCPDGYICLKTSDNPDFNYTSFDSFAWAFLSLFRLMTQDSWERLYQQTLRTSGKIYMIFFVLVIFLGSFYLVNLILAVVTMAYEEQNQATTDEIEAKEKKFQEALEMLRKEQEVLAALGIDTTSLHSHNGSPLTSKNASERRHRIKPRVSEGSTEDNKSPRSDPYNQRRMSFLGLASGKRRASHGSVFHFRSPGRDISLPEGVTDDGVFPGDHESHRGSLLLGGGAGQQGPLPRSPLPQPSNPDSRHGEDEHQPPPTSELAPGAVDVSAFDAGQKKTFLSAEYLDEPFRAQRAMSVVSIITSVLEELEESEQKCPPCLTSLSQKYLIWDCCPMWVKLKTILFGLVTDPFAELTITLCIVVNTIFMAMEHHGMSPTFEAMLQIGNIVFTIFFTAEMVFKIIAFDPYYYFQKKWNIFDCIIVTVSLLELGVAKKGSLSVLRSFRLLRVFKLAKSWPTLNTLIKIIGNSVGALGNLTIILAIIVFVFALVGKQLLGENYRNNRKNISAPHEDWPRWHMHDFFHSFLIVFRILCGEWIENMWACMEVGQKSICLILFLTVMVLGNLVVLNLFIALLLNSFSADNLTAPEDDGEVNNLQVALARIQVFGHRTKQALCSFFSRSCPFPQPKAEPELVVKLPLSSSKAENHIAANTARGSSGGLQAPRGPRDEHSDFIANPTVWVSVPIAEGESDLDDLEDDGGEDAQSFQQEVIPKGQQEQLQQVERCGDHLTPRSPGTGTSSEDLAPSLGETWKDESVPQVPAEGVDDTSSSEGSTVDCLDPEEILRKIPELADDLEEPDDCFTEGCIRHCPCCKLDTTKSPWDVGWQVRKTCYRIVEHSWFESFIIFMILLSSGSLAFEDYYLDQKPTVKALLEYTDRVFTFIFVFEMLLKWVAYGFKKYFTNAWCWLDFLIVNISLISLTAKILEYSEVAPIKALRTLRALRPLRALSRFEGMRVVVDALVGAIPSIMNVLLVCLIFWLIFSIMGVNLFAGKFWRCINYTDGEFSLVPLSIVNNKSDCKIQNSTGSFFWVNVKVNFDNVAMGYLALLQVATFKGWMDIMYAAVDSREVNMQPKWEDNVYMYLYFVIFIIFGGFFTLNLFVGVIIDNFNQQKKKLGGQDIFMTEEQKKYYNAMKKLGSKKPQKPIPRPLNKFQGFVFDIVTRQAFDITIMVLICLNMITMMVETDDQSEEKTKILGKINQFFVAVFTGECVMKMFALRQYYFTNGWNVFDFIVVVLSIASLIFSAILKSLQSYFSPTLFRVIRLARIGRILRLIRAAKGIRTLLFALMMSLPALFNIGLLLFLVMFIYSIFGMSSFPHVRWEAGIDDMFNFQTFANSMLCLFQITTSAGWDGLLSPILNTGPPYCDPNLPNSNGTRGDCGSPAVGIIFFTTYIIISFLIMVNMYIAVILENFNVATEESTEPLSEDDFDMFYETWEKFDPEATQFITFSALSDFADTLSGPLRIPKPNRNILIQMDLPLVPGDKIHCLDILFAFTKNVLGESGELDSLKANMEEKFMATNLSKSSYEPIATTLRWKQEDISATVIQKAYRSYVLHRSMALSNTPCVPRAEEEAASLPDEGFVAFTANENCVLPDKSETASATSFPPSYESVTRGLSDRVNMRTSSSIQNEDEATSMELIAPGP
T1 sequence (Q9NY72 23-215 partner): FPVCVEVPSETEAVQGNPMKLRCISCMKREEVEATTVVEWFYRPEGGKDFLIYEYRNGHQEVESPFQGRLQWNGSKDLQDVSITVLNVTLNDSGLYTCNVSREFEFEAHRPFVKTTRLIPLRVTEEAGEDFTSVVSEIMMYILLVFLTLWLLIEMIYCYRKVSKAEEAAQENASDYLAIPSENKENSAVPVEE

| Compound | IC50 [µM] |
| --- | --- |
| CS(=O)(=O)c1cccc(NC(=O)c2cc(C#N)nn2CC2CCCCC2)c1 [SC-38, 5-cyano-2-(cyclohexylmethyl)-N-(3-methylsulfonylphenyl)pyrazole-3-carboxamide] | 0.1 to 1 |
| NC(=O)c1cc(NC(=O)c2c(C(F)(F)F)cnn2CC2CCC(F)(F)CC2)ccc1F [SC-39, N-(3-carbamoyl-4-fluorophenyl)-2-[(4,4-difluorocyclohexyl)methyl]-4-(trifluoromethyl)pyrazole-3-carboxamide] | 0.1 to 1 |
| NC(=O)c1cccc(NC(=O)c2c(C(F)(F)F)cnn2CC2CCC(F)(F)CC2)c1 [SC-41, N-(3-carbamoylphenyl)-2-[(4,4-difluorocyclohexyl)methyl]-4-(trifluoromethyl)pyrazole-3-carboxamide] | 0.1 to 1 |
| CS(=O)(=O)c1cc(F)cc(NC(=O)c2c(C(F)(F)F)cnn2CC2CCC(F)(F)CC2)c1 [SC-42, 2-[(4,4-difluorocyclohexyl)methyl]-N-(3-fluoro-5-methylsulfonylphenyl)-4-(trifluoromethyl)pyrazole-3-carboxamide] | 1 to 10 |
| NS(=O)(=O)c1cccc(NC(=O)c2c(C(F)(F)F)cnn2CC2CCC(F)(F)CC2)c1 [SC-43, 2-[(4,4-difluorocyclohexyl)methyl]-N-(3-sulfamoylphenyl)-4-(trifluoromethyl)pyrazole-3-carboxamide] | 0.1 to 1 |
| Cc1nn(CC2CCC(F)(F)CC2)c(C(=O)Nc2cccc(S(C)(=O)=O)c2)c1C [SC-44, 2-[(4,4-difluorocyclohexyl)methyl]-4,5-dimethyl-N-(3-methylsulfonylphenyl)pyrazole-3-carboxamide] | 0.1 to 1 |
| Cc1nn(CC2CCOCC2)c(C(=O)Nc2cccc(S(N)(=O)=O)c2)c1C [SC-45, 3,4-dimethyl-N-(3-sulfamoylphenyl)-1-((tetrahydro-2H-pyran-4-yl)methyl)-1H-pyrazole-5-carboxamide] | 1 to 10 |
| CS(=O)(=O)n1cc(NC(=O)c2c(C(F)(F)F)cnn2CC2CCCCC2)c2cccnc21 [SC-53, 1-(cyclohexylmethyl)-N-(1-(methylsulfonyl)-1H-pyrrolo[2,3-b]pyridin-3-yl)-4-(trifluoromethyl)-1H-pyrazole-5-carboxamide] | ≤ 0.1 |
| Cc1nn(CC2CCC(F)(F)CC2)c(C(=O)Nc2ccnc(C(N)=O)c2)c1C(F)(F)F [SC-84, 4-(1-((4,4-difluorocyclohexyl)methyl)-3-methyl-4-(trifluoromethyl)-1H-pyrazole-5-carboxamido)picolinamide] | ≤ 0.1 |
| CC1CC(Cn2nc(C3CC3)c(C(F)(F)F)c2C(=O)Nc2ccnc(C(N)=O)c2)CCO1 (stereo not drawn) [SC-135, 4-(3-cyclopropyl-1-((2-methyltetraliydro-2H-pyran-4-yl)methyl)-4-(trifluoromethyl)-1H-pyrazole-5-carboxamido)picolinamide] | ≤ 0.1 |
| NC(=O)c1cc(NC(=O)c2c(C(F)(F)F)c(C3CC3)nn2CC2CCCCO2)ccc1F (stereo not drawn) [SC-140, N-(3-carbamoyl-4-fluorophenyl)-3-cyclopropyl-1-((tetrahydro-2H-pyran-2-yl)methyl)-4-(trifluoromethyl)-1H-pyrazole-5-carboxamide] | ≤ 0.1 |
| NC(=O)c1cc(NC(=O)c2c(C(F)(F)F)c(C(F)F)nn2CC2CC(F)(F)C2)ccc1F [SC-141, N-(3-carbamoyl-4-fluorophenyl)-1-((3,3-difluorocyclobutyl)methyl)-3-(difluoromethyl)-4-(trifluoromethyl)-1H-pyrazole-5-carboxamide] | ≤ 0.1 |
| CC1CCCC(Cn2nc(C3CC3)c(C(F)(F)F)c2C(=O)Nc2ccnc(C(N)=O)c2)O1 (stereo not drawn) [SC-143, 4-(3-cyclopropyl-1-((6-methyltetrahydro-2H-pyran-2-yl)methyl)-4-(trifluoromethyl)-1H-pyrazole-5-carboxamido)picolinamide] | ≤ 0.1 |
| NC(=O)c1cc(NC(=O)c2c(C(F)(F)F)c(C3CC3)nn2CC2CC(F)(F)C2)ccn1 [SC-144, 4-(3-cyclopropyl-1-((3,3-difluorocyclobutyl)methyl)-4-(trifluoromethyl)-1H-pyrazole-5-carboxamido)picolinamide] | ≤ 0.1 |
| CS(=O)(=O)c1cc(NC(=O)c2c(C(F)(F)F)c(C3CC3)nn2CC2CC(F)(F)C2)ccn1 [SC-151, 3-cyclopropyl-1-((3,3-difluorocyclobutyl)methyl)-N-(2-(methylsulfonyl)pyridin-4-yl)-4-(trifluoromethyl)-1H-pyrazole-5-carboxamide] | ≤ 0.1 |
| CS(=O)(=O)c1cc(NC(=O)c2c(C(F)F)c(C3CC3)nn2CC2CCOCC2)ccn1 [SC-153, 3-cyclopropyl-4-(difluoromethyl)-N-(2-(methylsulfonyl)pyridin-4-yl)-1-((tetrahydro-2H-pyran-4-yl)methyl)-1H-pyrazole-5-carboxamide] | ≤ 0.1 |
| CC(C)Oc1nn(CC2CCC(F)(F)C2)c(C(=O)Nc2ccnc(C(N)=O)c2)c1C(F)(F)F (stereo not drawn) [SC-155, 4-(1-((3,3-difluorocyclopentyl)methyl)-3-isopropoxy-4-(trifluoromethyl)-1H-pyrazole-5-carboxamido)picolinamide] | ≤ 0.1 |
| CCOc1nn(CC2CCC(F)(F)C2)c(C(=O)Nc2ccnc(C(N)=O)c2)c1C(F)(F)F (stereo not drawn) [SC-156, 4-(1-((3,3-difluorocyclopentyl)methyl)-3-ethoxy-4-(trifluoromethyl)-1H-pyrazole-5-carboxamido)picolinamide] | ≤ 0.1 |

| Compound | IC50 [µM] |
| --- | --- |
| NC(=O)c1cc(NC(=O)c2c(C(F)(F)F)c(OC(F)F)nn2C[C@@H]2CCC(F)(F)C2)ccn1 [SC-158R] | ≤ 0.1 |
| NC(=O)c1cc(NC(=O)c2c(C(F)(F)F)c(OC(F)F)nn2C[C@H]2CCC(F)(F)C2)ccn1 [SC-158S] | ≤ 0.1 |
| NC(=O)c1cc(NC(=O)c2c(C(F)(F)F)c(C3CC3)nn2CC2CCC2)ccn1 [SC-159, 4-(1-(cyclobutylmethyl)-3-cyclopropyl-4-(trifluoromethyl)-1H-pyrazole-5-carboxamido)picolinamide] | ≤ 0.1 |
| Cc1c(C(C)(F)F)nn(CC2CC(F)(F)C2)c1C(=O)Nc1ccnc(C(N)=O)c1 [SC-161, 4-(1-((3,3-difluorocyclobutyl)methyl)-3-(1,1-difluoroethyl)-4-methyl-1H-pyrazole-5-carboxamido)picolinamide] | ≤ 0.1 |
| Cc1c(C(F)F)nn(CC2CCC(F)(F)CC2)c1C(=O)Nc1ccnc(C(N)=O)c1 [SC-163, 4-(1-((4,4-difluorocyclohexyl)methyl)-3-(difluoromethyl)-4-methyl-1H-pyrazole-5-carboxamido)picolinamide] | ≤ 0.1 |
| Cc1c(C(C)(F)F)nn(CC2CCC(F)(F)C2)c1C(=O)Nc1ccnc(C(N)=O)c1 (stereo not drawn) [SC-167, 4-(1-((3,3-difluorocyclopentyl)methyl)-3-(1,1-difluoroethyl)-4-methyl-1H-pyrazole-5-carboxamido)picolinamide] | ≤ 0.1 |
| CC(C)c1nn(CC2CC(F)(F)C2)c(C(=O)Nc2ccnc(C(N)=O)c2)c1C(F)(F)F [SC-170, 4-(1-((3,3-difluorocyclobutyl)methyl)-3-isopropyl-4-(trifluoromethyl)-1H-pyrazole-5-carboxamido)picolinamide] | ≤ 0.1 |
| CCc1nn(CC2CC(F)(F)C2)c(C(=O)Nc2ccnc(C(N)=O)c2)c1C(F)(F)F [SC-172, 4-(1-((3,3-difluorocyclobutyl)methyl)-3-ethyl-4-(trifluoromethyl)-1H-pyrazole-5-carboxamido)picolinamide] | ≤ 0.1 |
| CC(F)(F)c1nn(CC2CC(F)(F)C2)c(C(=O)Nc2ccnc(C(N)=O)c2)c1C(F)(F)F [SC-180, 4-(1-((3,3-difluorocyclobutyl)methyl)-3-(1,1-difluoroethyl)-4-(trifluoromethyl)-1H-pyrazole-5-carboxamido)picolinamide] | ≤ 0.1 |
| Cc1c([C@@H](C)C(F)(F)F)nn(CC2CC(F)(F)C2)c1C(=O)Nc1ccnc(C(N)=O)c1 [SC-188a] | 0.1 to 1 |
| Cc1c([C@H](C)C(F)(F)F)nn(CC2CC(F)(F)C2)c1C(=O)Nc1ccnc(C(N)=O)c1 [SC-188b] | 0.1 to 1 |
| Cc1c([C@@H](C)C(F)F)nn(CC2CC(F)(F)C2)c1C(=O)Nc1ccnc(C(N)=O)c1 [SC-192a] | 0.1 to 1 |
| Cc1c([C@H](C)C(F)F)nn(CC2CC(F)(F)C2)c1C(=O)Nc1ccnc(C(N)=O)c1 [SC-192b] | 0.1 to 1 |
| Cc1c(OC(F)F)nn(CC2CCC(F)(F)C2)c1C(=O)Nc1ccnc(C(N)=O)c1 (stereo not drawn) [SC-196, 4-(1-((3,3-difluorocyclopentyl)methyl)-3-(difluoromethoxy)-4-methyl-1H-pyrazole-5-carboxamido)picolinamide] | ≤ 0.1 |
| Cc1c(C(C)(F)F)nn(CC2(C)CC(F)(F)C2)c1C(=O)Nc1ccnc(C(N)=O)c1 [SC-208, 4-(1-((3,3-difluoro-1-methylcyclobutyl)methyl)-3-(1,1-difluoroethyl)-4-methyl-1H-pyrazole-5-carboxamido)picolinamide] | ≤ 0.1 |
| Cc1c(C(C)(F)F)nn(CC2(C)CC(F)(F)C2)c1C(=O)Nc1ccnc(S(N)(=O)=O)c1 [SC-209, 1-((3,3-difluoro-1-methylcyclobutyl)methyl)-3-(1,1-difluoroethyl)-4-methyl-N-(2-sulfamoylpyridin-4-yl)-1H-pyrazole-5-carboxamide] | ≤ 0.1 |
| Cc1c(C(C)(F)F)nn(CC2(C)CC(F)(F)C2)c1C(=O)Nc1ccnc(S(C)(=O)=O)c1 [SC-210, 1-((3,3-difluoro-1-methyleyclobutyl)methyl)-3-(1,1-difluoroethyl)-4-methyl-N-(2-(methylsulfonyl)pyridin-4-yl)-1H-pyrazole-5-carboxamide] | ≤ 0.1 |
| Cc1c(C(C)(F)F)nn(CC2CCC(F)(F)C2)c1C(=O)Nc1ccnc(S(N)(=O)=O)c1 (stereo not drawn) [SC-211, 1-((3,3-difluorocyclopentyl)methyl)-3-(1,1-difluoroethyl)-4-methyl-N-(2-sulfamoylpyridin-4-yl)-1H-pyrazole-5-carboxamide] | ≤ 0.1 |
